In patent US4948892A, “Sulfonamid compound useful for treating cardiovascular disorders” (Kowa Comp., Ltd., priority 1988, dated 1990):

Test system: ADP-induced platelet aggregation (rabbit PRP)
Test: Inhibitory effect on ADP-induced platelet aggregation in PRP
Type: cell-based
Details: ADP (2 μM), preincubated 37° C. for 1 minute, inhibition rate (%) at this concentration in parentheses
Protocol: Rabbit PRP (250 μl) was preincubated with drug samples (10 μl of aqueous solution or 1 μl of DMSO solution) at 37° C. for 1 minute, and ADP (2 μM)-induced platelet aggregation was measured by aggregometer (NKK HEMA TRACERl Model PAT-4M). Inhibitory effects of the drugs were estimated from the standard curve of maximal aggregation.

O=S(=O)(NCCCN1CCN(C(c2ccccc2)c2ccccc2)CC1)c1ccc(Cl)cc1 [Example 9]
Platelet aggregation inhibitory concentration: 10^-4 mole/liter
